Laboratory results taken from patent publication US20210380630A1, “Bio-catalyzed Synthesis of New Aromatase Inhibitors through Structural Modifications of Anticancer Drug Formestane” (priority 2021, published 2021).
Where two headings read alike, the source gives them in different places.

Assays:
[1] = molecular target: T1, aromatase (human placental microsomes) (Homo sapiens, UniProt P11511); experiment: human placental aromatase assay; type: biochemical
T1 construct: protein (2 mg) from human placental microsomes; from tissue; host or cells: human placenta (microsomal fraction)
T1 sequence (P11511 1-503): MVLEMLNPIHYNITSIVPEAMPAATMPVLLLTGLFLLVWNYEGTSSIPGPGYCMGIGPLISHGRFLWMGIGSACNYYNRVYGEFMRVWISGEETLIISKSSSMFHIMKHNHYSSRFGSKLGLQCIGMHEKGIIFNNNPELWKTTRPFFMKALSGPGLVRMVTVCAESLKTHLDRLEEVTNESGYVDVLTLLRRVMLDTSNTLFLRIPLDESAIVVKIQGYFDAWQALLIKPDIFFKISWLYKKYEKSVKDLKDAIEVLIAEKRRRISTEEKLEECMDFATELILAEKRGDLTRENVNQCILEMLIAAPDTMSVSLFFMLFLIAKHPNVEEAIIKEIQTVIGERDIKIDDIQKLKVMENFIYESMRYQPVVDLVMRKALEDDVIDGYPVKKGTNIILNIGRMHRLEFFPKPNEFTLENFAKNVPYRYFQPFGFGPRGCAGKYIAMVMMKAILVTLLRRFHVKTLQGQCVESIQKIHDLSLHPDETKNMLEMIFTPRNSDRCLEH

[2] = test system: human fibroblast (BJ) normal cell line; experiment: cytotoxicity against BJ normal cell line

Structure (SMILES) | IC50 [1] | IC50 ([1]; human placental microsomes, 10 μM testosterone, estradiol by UPLC, read-out: IC50 aromatase inhibition) | cytotoxicity to BJ normal cell line [2]
C[C@]12CCC(=O)C(O)=C1CC[C@@H]1[C@@H]2CC[C@]2(C)C(=O)CC[C@@H]12 [Compound 1, Formestane] | 0.335 ± 0.011 µM | – | –
C[C@]12CC[C@H]3[C@@H]([C@H](O)C[C@@]4(O)[C@H](O)C(=O)CC[C@]34C)[C@@H]1CCC2=O [Compound 2, 4α,5α,7α-Trihydroxyandrostane-3,17-dione] | 5.23 ± 0.094 µM | – | –
C[C@]12CC[C@H](O)C(=O)C1C[C@H](O)[C@@H]1[C@@H]2CC[C@]2(C)C(=O)CC[C@@H]12 (stereo partly drawn) [Compound 3, 3β,7β-Dihydroxyandrostane-4,17-dione] | – | 1.37 ± 0.029 µM | –
C[C@]12CC[C@H]3[C@@H]([C@@H](O)C[C@@]4(O)C(=O)[C@@H](O)CC[C@]34C)[C@@H]1CCC2=O [Compound 4, 3β,5α,7β-Trihydroxyandrostane-4,17-dione] | 0.386 ± 0.072 µM | – | –
C[C@]12C=CC(=O)C(O)=C1CC[C@@H]1[C@@H]2[C@H](O)C[C@]2(C)C(=O)CC[C@@H]12 [Compound 5, 4,11α-Dihydroxyandrosta-1,4-diene-3,17-dione] | 34.3 ± 0.532 µM | – | non-cytotoxic
